# From patent US7928107B2, “Quinazolines useful as modulators of ion channels” (Vertex Pharmaceuticals Incorporated, priority 2004, dated 2011)
# Molecular target: NaV 1.8 channel (Homo sapiens, UniProt Q9Y5Y9)
# Assay: Activity against NaV 1.8 channel (optical membrane potential assay)
# Format: cell-based
# In short: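 Cells expressing the NaV of interest loaded with CC2-DMPE (30 min, room temperature) then DiSBAC2(3) with ABSCl and veratridine; compound incubated 20–30 min. Depolarization triggered by sodium add-back and read on VIPR as 460/580 nm FRET ratio (Rf/Ri), normalized to tetracaine and untreated controls.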
# NaV 1.8 channel, sequence (Q9Y5Y9 whole entry): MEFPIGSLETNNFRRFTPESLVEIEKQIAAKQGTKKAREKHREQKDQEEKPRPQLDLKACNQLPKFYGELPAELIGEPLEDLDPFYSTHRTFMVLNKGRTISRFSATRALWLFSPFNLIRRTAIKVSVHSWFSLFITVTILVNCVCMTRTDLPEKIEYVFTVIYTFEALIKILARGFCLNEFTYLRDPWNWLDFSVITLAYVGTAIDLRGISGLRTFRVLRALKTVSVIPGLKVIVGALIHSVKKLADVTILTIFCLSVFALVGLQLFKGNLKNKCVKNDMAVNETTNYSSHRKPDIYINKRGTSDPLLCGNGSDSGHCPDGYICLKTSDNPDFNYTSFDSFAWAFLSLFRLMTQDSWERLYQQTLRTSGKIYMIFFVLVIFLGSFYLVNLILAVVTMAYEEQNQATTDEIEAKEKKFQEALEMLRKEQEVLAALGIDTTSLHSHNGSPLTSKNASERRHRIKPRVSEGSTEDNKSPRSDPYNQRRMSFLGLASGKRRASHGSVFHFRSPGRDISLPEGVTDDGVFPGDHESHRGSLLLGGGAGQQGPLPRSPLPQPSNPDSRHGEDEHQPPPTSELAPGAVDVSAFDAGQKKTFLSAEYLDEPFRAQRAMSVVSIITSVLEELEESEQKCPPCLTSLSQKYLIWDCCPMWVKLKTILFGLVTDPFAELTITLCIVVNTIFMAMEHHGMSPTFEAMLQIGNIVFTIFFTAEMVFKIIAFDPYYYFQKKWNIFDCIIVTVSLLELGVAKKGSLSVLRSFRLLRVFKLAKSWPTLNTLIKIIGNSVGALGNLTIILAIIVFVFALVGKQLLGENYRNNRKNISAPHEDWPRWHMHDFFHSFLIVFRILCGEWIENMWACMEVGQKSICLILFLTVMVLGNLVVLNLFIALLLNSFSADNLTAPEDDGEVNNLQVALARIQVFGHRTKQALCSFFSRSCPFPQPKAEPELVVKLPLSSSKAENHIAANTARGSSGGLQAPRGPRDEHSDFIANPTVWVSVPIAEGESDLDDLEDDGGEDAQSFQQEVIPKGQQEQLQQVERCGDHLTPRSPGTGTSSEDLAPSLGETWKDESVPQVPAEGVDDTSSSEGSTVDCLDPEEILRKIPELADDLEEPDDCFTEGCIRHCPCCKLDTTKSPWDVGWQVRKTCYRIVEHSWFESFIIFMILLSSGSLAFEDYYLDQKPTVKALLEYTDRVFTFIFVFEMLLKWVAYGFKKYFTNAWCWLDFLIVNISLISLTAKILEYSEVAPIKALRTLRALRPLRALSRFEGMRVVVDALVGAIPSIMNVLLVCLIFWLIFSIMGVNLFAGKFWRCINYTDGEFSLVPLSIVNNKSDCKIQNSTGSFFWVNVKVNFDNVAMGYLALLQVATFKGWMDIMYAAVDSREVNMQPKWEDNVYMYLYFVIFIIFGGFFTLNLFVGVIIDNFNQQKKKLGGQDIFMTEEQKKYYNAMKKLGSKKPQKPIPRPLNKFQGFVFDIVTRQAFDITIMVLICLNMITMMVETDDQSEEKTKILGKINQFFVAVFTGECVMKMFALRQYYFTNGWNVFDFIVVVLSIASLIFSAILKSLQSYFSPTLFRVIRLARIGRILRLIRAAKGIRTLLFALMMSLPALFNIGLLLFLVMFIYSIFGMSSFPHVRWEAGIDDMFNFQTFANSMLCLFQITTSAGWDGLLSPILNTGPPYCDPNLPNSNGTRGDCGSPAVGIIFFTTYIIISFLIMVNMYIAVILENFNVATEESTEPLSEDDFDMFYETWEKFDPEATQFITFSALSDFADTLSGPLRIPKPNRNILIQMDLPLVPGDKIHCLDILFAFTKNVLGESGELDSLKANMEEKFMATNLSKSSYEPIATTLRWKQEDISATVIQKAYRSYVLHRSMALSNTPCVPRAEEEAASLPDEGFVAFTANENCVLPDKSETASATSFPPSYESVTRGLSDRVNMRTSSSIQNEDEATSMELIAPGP
row,IC50,Compound
1,2 to 10 µM,"Cc1ccc2c(N3CCC[C@@H](NC(=O)[C@H]4CCCO4)C3)nc(-c3ccccc3O)nc2c1 [Example 206, (2R)-Tetrahydro-N—((R)-1-(2-(2-hydroxyphenyl)-7-methylquinazolin-4-yl)piperidin-3-yl)furan-2-carboxamide]"
2,> 10 µM,"Cc1ccc2c(N3CCN(C(=O)O[C@@H]4CCOC4)[C@@H](CO)C3)nc(-c3ccccc3O)nc2c1 [Example 149, (2R)-(R)-Tetrahydrofuran-3-yl 2-(hydroxymethyl)-4-(2-(2-hydroxyphenyl)-7-methylquinazolin-4-yl)piperazine-1-carboxylate]"
3,> 10 µM,Cc1ccc2c(N3CC(NC(=O)OCC4CCOC4)C3)nc(-c3ccccc3O)nc2c1 (stereo not drawn) [Example 416]
4,2 to 10 µM,"CCC(C)(O)C(=O)N1CCN(c2nc(-c3ccccc3O)nc3cc(C)ccc23)CC1 (stereo not drawn) [Example 165, 2-Hydroxy-1-(4-(2-(2-hydroxyphenyl)-7-methylquinazolin-4-yl)piperazin-1-yl)-2-methylbutan-1-one]"
5,2 to 10 µM,"Cc1ccc2c(N3CC[C@@H](NC(=O)OCc4cccnc4)C3)nc(-c3ccccc3O)nc2c1 [Example 319, (Pyridin-3-yl)methyl (R)-1-(2-(2-hydroxyphenyl)-7-methylquinazolin-4-yl)pyrrolidin-3-ylcarbamate]"
6,2 to 10 µM,"CC(C)C[C@@H](O)C(=O)N1CCN(c2nc(-c3ccccc3O)nc3ccc(F)cc23)CC1 [Example 143, (R)-1-(4-(6-Fluoro-2-(2-hydroxyphenyl)quinazolin-4-yl)piperazin-1-yl)-2-hydroxy-4-methylpentan-1-one]"
7,> 10 µM,"CC[C@@H](O)C(=O)NC1CCN(c2nc(-c3ccccc3O)nc3ccccc23)CC1 [Example 236, (2R)-2-Hydroxy-N-(1-(2-(2-hydroxyphenyl)quinazolin-4-yl)piperidin-4-yl)butanamide]"
8,2 to 10 µM,Cc1ccc2c(N3CCC(NC(=O)O[C@@H]4CO[C@H]5OCC[C@H]54)CC3)nc(-c3ccccc3O)nc2c1 [Example 280]
9,2 to 10 µM,"CCOC(=O)NC[C@@H]1CCCN(c2nc(-c3ccccc3O)nc3cc(C)ccc23)C1 [Example 254, Ethyl((S)-1-(2-(2-hydroxyphenyl)-7-methylquinazolin-4-yl)piperidin-3-yl)methylcarbamate]"
10,> 10 µM,"Cc1ccc2c(N3CCN(C(=O)[C@H](O)CC(C)C)[C@@H](CO)C3)nc(-c3ccccc3O)nc2c1 [Example 106, (R)-2-Hydroxy-1-((R)-2-(hydroxymethyl)-4-(2-(2-hydroxyphenyl)-7-methylquinazolin-4-yl)piperazin-1-yl)-4-methylpentan-1-one]"
11,> 10 µM,"Cc1ccc2c(N3CCN(C(=O)OCc4cccc5c4OCO5)CC3)nc(-c3ccccc3O)nc2c1 [Example 103, (Benzo[d][1,3]dioxol-7-yl)methyl 4-(2-(2-hydroxyphenyl)-7-methylquinazolin-4-yl)piperazine-1-carboxylate]"
12,< 2 µM,Cc1ccc2c(N3CCC[C@@H](NC(=O)OCC(C)C)C3)nc(-c3ccccc3O)nc2c1 [Example 282]
13,> 10 µM,"Cc1ccc2c(N3CCC(NC(=O)OCc4ccncc4)CC3)nc(-c3ccccc3O)nc2c1 [Example 228, (Pyridin-4-yl)methyl 1-(2-(2-hydroxyphenyl)-7-methylquinazolin-4-yl)piperidin-4-ylcarbamate]"
14,> 10 µM,"Cc1ccc2c(N3CCC(NC(=O)CC4CCOCC4)CC3)nc(-c3ccccc3O)nc2c1 [Example 221, 2-(Tetrahydro-2H-pyran-4-yl)-N-(1-(2-(2-hydroxyphenyl)-7-methylquinazolin-4-yl)piperidin-4-yl)acetamide]"
15,< 2 µM,"Cc1ccc2c(N3CCC[C@@H](NC(=O)O[C@@H]4CCOC4)C3)nc(-c3ccccc3O)nc2c1 [Example 207, (R)-Tetrahydrofuran-3-yl (R)-1-(2-(2-hydroxyphenyl)-7-methylquinazolin-4-yl)piperidin-3-ylcarbamate]"
16,2 to 10 µM,"O=C(N[C@@H]1CCN(c2nc(-c3ccccc3O)nc3ccc(F)cc23)C1)OCC1CCCCO1 (stereo partly drawn) [Example 339, (Tetrahydro-2H-pyran-2-yl)methyl (R)-1-(6-fluoro-2-(2-hydroxyphenyl)quinazolin-4-yl)pyrrolidin-3-ylcarbamate]"
17,> 10 µM,"Cc1ccc2c(N3CCC[C@H](NC(=O)O[C@H]4CCOC4)C3)nc(-c3ccccc3O)nc2c1 [Example 204, (S)-Tetrahydrofuran-3-yl (S)-1-(2-(2-hydroxyphenyl)-7-methylquinazolin-4-yl)piperidin-3-ylcarbamate]"
18,2 to 10 µM,"Cc1ccc2c(N3CCN(C(=O)O[C@H]4CCOC4)CC3)nc(-c3c(O)cccc3F)nc2c1 [Example 163, (S)-Tetrahydrofuran-3-yl 4-(2-(2-fluoro-6-hydroxyphenyl)-7-methylquinazolin-4-yl)piperazine-1-carboxylate]"
19,> 10 µM,"Cc1ccc2c(N3CCN(C(=O)[C@H](O)Cc4ccccc4)CC3)nc(-c3ccccc3O)nc2c1 [Example 130, (R)-2-Hydroxy-1-{4-[2-(2-hydroxy-phenyl)-7-methyl-quinazolin-4-yl]-piperazin-1-yl}-3-phenylpropan-1-one]"
20,> 10 µM,"CCCCC(O)C(=O)NC1CCN(c2nc(-c3ccccc3O)nc3ccccc23)CC1 (stereo not drawn) [Example 238, 2-Hydroxy-N-(1-(2-(2-hydroxyphenyl)quinazolin-4-yl)piperidin-4-yl)hexanamide]"

row,IC50,Compound
1,> 10 µM,"CC[C@@H](C)[C@@H](O)C(=O)N1CCN(c2nc(-c3ccccc3O)nc3cc(C)ccc23)CC1 [Example 176, (2R,3R)-2-Hydroxy-1-(4-(2-(2-hydroxyphenyl)-7-methylquinazolin-4-yl)piperazin-1-yl)-3-methylpentan-1-one]"
2,> 10 µM,"Cc1ccc2c(N3CC[C@@H](NC(=O)C4CCOCC4)C3)nc(-c3ccccc3O)nc2c1 [Example 316, Tetrahydro-N—((R)-1-(2-(2-hydroxyphenyl)-7-methylquinazolin-4-yl)pyrrolidin-3-yl)-2H-pyran-4-carboxamide]"
3,2 to 10 µM,"COCCOC(=O)NC[C@@H]1CCN(c2nc(-c3ccccc3O)nc3cc(C)ccc23)C1 [Example 366, 2-Methoxyethyl ((S)-1-(2-(2-hydroxyphenyl)-7-methylquinazolin-4-yl)pyrrolidin-3-yl)methylcarbamate]"
4,> 10 µM,"O=C(N[C@@H]1CCN(c2nc(-c3ccccc3O)nc3ccc(F)cc23)C1)c1ccncc1 [Example 347, N—((R)-1-(6-Fluoro-2-(2-hydroxyphenyl)quinazolin-4-yl)pyrrolidin-3-yl)isonicotinamide]"
5,2 to 10 µM,Cc1ccc2c(N3CC(CNC(=O)OCC4CCCO4)C3)nc(-c3ccccc3O)nc2c1 (stereo not drawn) [Example 415]
6,2 to 10 µM,"Cc1ccc2c(N3CCN(C(=O)OCc4cccnc4)CC3)nc(-c3ccccc3O)nc2c1 [Example 132, (Pyridin-3-yl)methyl 4-(2-(2-hydroxyphenyl)-7-methylquinazolin-4-yl)piperazine-1-carboxylate]"
7,2 to 10 µM,Cc1ccc2c(N3CCN(C(=O)O[C@@H]4CCOC4)CC3)nc(-c3ccccc3O)nc2c1 [Example 182]
8,2 to 10 µM,"CCOC(=O)NCC1CCCN(c2nc(-c3ccccc3O)nc3cc(C)ccc23)C1 (stereo not drawn) [Example 251, Ethyl (1-(2-(2-hydroxyphenyl)-7-methylquinazolin-4-yl)piperidin-3-yl)methylcarbamate]"
9,> 10 µM,"Cc1ccc2c(N3CCN(C(=O)[C@H](O)CC(C)C)CC3)nc(-c3cc(F)ccc3O)nc2c1 [Example 136, (R)-1-(4-(2-(5-Fluoro-2-hydroxyphenyl)-7-methylquinazolin-4-yl)piperazin-1-yl)-2-hydroxy-4-methylpentan-1-one]"
10,2 to 10 µM,Cc1ccc2c(N3CCN(C(=O)O[C@H]4COC5OCC[C@@H]54)CC3)nc(-c3ccccc3O)nc2c1 (stereo partly drawn) [Example 190]
11,> 10 µM,"Cc1ccc2c(N3CC[C@@H](NC(=O)C(O)c4ccc(F)cc4)C3)nc(-c3ccccc3O)nc2c1 (stereo partly drawn) [Example 360, 2-(4-Fluorophenyl)-2-hydroxy-N—((R)-1-(2-(2-hydroxyphenyl)-7-methylquinazolin-4-yl)pyrrolidin-3-yl)acetamide]"
12,> 10 µM,"C#CC(O)C(=O)N1CCN(c2nc(-c3ccccc3O)nc3cc(C)ccc23)CC1 (stereo not drawn) [Example 158, 2-Hydroxy-1-(4-(2-(2-hydroxyphenyl)-7-methylquinazolin-4-yl)piperazin-1-yl)but-3-yn-1-one]"
13,> 10 µM,"CC[C@H](O)C(=O)N1CCN(c2nc(-c3ccccc3O)nc3cc(C)ccc23)CC1 [Example 124, (S)-2-Hydroxy-1-(4-(2-(2-hydroxyphenyl)-7-methylquinazolin-4-yl)piperazin-1-yl)butan-1-one]"
14,2 to 10 µM,Cc1ccc2c(N3CCN(C(=O)O[C@H]4CCOC4)CC3)nc(-c3ccccc3O)nc2c1 [Example 183]
15,> 10 µM,"CC(=O)C[C@@H](O)C(=O)N1CCN(c2nc(-c3ccccc3O)nc3cc(C)ccc23)CC1 [Example 151, (R)-2-Hydroxy-1-(4-(2-(2-hydroxyphenyl)-7-methylquinazolin-4-yl)piperazin-1-yl)pentan-1,4-dione]"
16,2 to 10 µM,"Cc1ccc2c(N3CCN(C(=O)OCc4cccnc4)CC3)nc(-c3c(O)cccc3F)nc2c1 [Example 156, (Pyridin-3-yl)methyl 4-(2-(2-fluoro-6-hydroxyphenyl)-7-methylquinazolin-4-yl)piperazine-1-carboxylate]"
17,< 2 µM,"COCCOC(=O)NC1CCN(c2nc(-c3ccccc3O)nc3ccc(F)cc23)CC1 [Example 258, 2-Methoxyethyl 1-(6-fluoro-2-(2-hydroxyphenyl)quinazolin-4-yl)piperidin-4-ylcarbamate]"
18,> 10 µM,Cc1ccc2c(N3CC(CNC(=O)C4CCCO4)C3)nc(-c3ccccc3O)nc2c1 (stereo not drawn) [Example 417]
19,> 10 µM,"Cc1ccc2c(N3CCC(NC(=O)OCc4cccnc4)CC3)nc(-c3ccccc3O)nc2c1 [Example 227, (Pyridin-3-yl)methyl 1-(2-(2-hydroxyphenyl)-7-methylquinazolin-4-yl)piperidin-4-ylcarbamate]"
